{
  "source": "patent US10294202B2",
  "about": "“Pyrrolidinones as herbicides” (FMC Corporation, priority 2013, dated 2019)",
  "key": {"lambsquarters": {"system": "lambsquarters", "assay": "Test C pre-/postemergence herbicide test", "format": "in vivo, Chenopodium album", "in_short": "(§1)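 Pre-emergence: seeds sown in loam/sand blend and treated with compound in surfactant-containing solvent. Post-emergence: plants at 2–18 cm (1- to 4-leaf stage) in peat-based medium sprayed with the same formulation. Visual rating versus controls after 13–15 days in greenhouse, scale 0 (no effect) to 100 (complete control).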"}, "crabgrass, large": {"system": "crabgrass, large", "assay": "Test C pre-/postemergence herbicide test", "format": "in vivo, Digitaria sanguinalis", "in_short": "as §1"}, "chickweed": {"system": "chickweed", "assay": "Test C postemergence herbicide test", "format": "in vivo, Stellaria media", "in_short": "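Response is scored visually on a 0–100 scale (100 = complete control) relative to untreated controls, 13 to 15 days after treatment. Plants were sprayed postemergence at the 1- to 4-leaf stage (2 to 18 cm tall) and kept in a greenhouse.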"}, "velvetleaf": {"system": "velvetleaf", "assay": "Test C pre-/postemergence herbicide test", "format": "in vivo, Abutilon theophrasti", "in_short": "as §1"}, "pigweed": {"system": "pigweed", "assay": "Test C pre-/postemergence herbicide test", "format": "in vivo, Amaranthus retroflexus", "in_short": "as §1"}, "wheat (winter wheat)": {"system": "wheat (winter wheat)", "assay": "Test C pre-/postemergence herbicide test", "format": "in vivo, Triticum aestivum", "in_short": "as §1"}, "rice": {"system": "rice", "assay": "Test C flooded paddy test", "format": "in vivo, Oryza sativa", "settings": "Flood", "in_short": "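Visual injury scored against controls after 13 to 15 days in the greenhouse, using 0 (no effect) to 100 (complete control). Test compounds went straight into paddy water held 3 cm above the soil surface on 2-leaf-stage plants, with that flood depth maintained for the whole test.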"}, "[1]": {"settings": "Postemergence, 31 g ai/ha, scale 0 (no effect) to 100 (complete control)"}, "[2]": {"settings": "Postemergence, 62 g ai/ha, scale 0 to 100 (0 no effect, 100 complete control)"}, "[3]": {"settings": "Postemergence, 125 g ai/ha, scale 0 to 100 (0 no effect, 100 complete control)"}, "[4]": {"settings": "Postemergence, 250 g ai/ha, scale 0 to 100 (0 no effect, 100 complete control)"}, "[5]": {"settings": "Preemergence, 31 g ai/ha, scale 0 to 100, 0 is no effect and 100 is complete control"}, "[6]": {"settings": "Preemergence, 62 g ai/ha, scale 0 to 100"}, "[7]": {"settings": "Preemergence, 125 g ai/ha, scale 0 to 100 (0 no effect, 100 complete control)"}},
  "data": [
    {"smiles": "O=C1NCC(c2ccc(C(F)(F)F)cc2)C1C(=O)Nc1cccc(F)c1F", "note": "(centres unmarked) [Compound 80, N-(2,3-difluorophenyl)-2-oxo-4-[4-(trifluoromethyl)phenyl]-3-pyrrolidinecarboxamide]", "values": [
      {"measurement": "Plant response rating, Lambsquarters", "setting": "lambsquarters; [1]", "result": 55},
      {"measurement": "Plant response rating, Lambsquarters", "setting": "lambsquarters; [2]", "result": 55},
      {"measurement": "Plant response rating, Lambsquarters", "setting": "lambsquarters; [3]", "result": 60},
      {"measurement": "Plant response rating, Lambsquarters", "setting": "lambsquarters; [4]", "result": 70},
      {"measurement": "Lambsquarters plant response rating", "setting": "lambsquarters; [5]", "result": 40},
      {"measurement": "Plant response rating, Lambsquarters", "setting": "lambsquarters; [6]", "result": 85},
      {"measurement": "Plant response rating, Lambsquarters", "setting": "lambsquarters; [7]", "result": 90},
      {"measurement": "Plant response rating (scale of 0 to 100), Lambsquarters", "setting": "lambsquarters; Preemergence, 250 g ai/ha", "result": 90},
      {"measurement": "Plant response rating, Crabgrass, Large", "setting": "crabgrass, large; [1]", "result": 5},
      {"measurement": "Plant response rating, Crabgrass, Large", "setting": "crabgrass, large; [2]", "result": 40},
      {"measurement": "Plant response rating, Crabgrass, Large", "setting": "crabgrass, large; [3]", "result": 65},
      {"measurement": "Plant response rating, Crabgrass, Large", "setting": "crabgrass, large; [4]", "result": 75},
      {"measurement": "Crabgrass, Large plant response rating", "setting": "crabgrass, large; [5]", "result": 95},
      {"measurement": "Plant response rating, Crabgrass, Large", "setting": "crabgrass, large; [6]", "result": 98},
      {"measurement": "Plant response rating, Crabgrass, Large", "setting": "crabgrass, large; [7]", "result": 98},
      {"measurement": "Plant response rating (scale of 0 to 100), Crabgrass, Large", "setting": "crabgrass, large; Preemergence, 250 g ai/ha", "result": 100},
      {"measurement": "Plant response rating, Chickweed", "setting": "chickweed; 31 g ai/ha, scale 0 (no effect) to 100 (complete control)", "result": 70},
      {"measurement": "Plant response rating, Chickweed", "setting": "chickweed; 62 g ai/ha, scale 0 to 100 (0 no effect, 100 complete control)", "result": 85},
      {"measurement": "Plant response rating, Chickweed", "setting": "chickweed; 125 g ai/ha, scale 0 to 100 (0 no effect, 100 complete control)", "result": 90},
      {"measurement": "Plant response rating, Chickweed", "setting": "chickweed; 250 g ai/ha, scale 0 to 100 (0 no effect, 100 complete control)", "result": 90},
      {"measurement": "Plant response rating, Velvetleaf", "setting": "velvetleaf; [1]", "result": 15},
      {"measurement": "Plant response rating, Velvetleaf", "setting": "velvetleaf; [2]", "result": 15},
      {"measurement": "Plant response rating, Velvetleaf", "setting": "velvetleaf; [4]", "result": 25},
      {"measurement": "Velvetleaf plant response rating", "setting": "velvetleaf; [5]", "result": 0},
      {"measurement": "Plant response rating, Velvetleaf", "setting": "velvetleaf; [6]", "result": 30},
      {"measurement": "Plant response rating, Velvetleaf", "setting": "velvetleaf; [7]", "result": 35},
      {"measurement": "Plant response rating (scale of 0 to 100), Velvetleaf", "setting": "velvetleaf; Preemergence, 250 g ai/ha", "result": 50},
      {"measurement": "Plant response rating, Pigweed", "setting": "pigweed; [1]", "result": 40},
      {"measurement": "Plant response rating, Pigweed", "setting": "pigweed; [2]", "result": 40},
      {"measurement": "Plant response rating, Pigweed", "setting": "pigweed; [3]", "result": 60},
      {"measurement": "Plant response rating, Pigweed", "setting": "pigweed; [4]", "result": 75},
      {"measurement": "Pigweed plant response rating", "setting": "pigweed; [5]", "result": 75},
      {"measurement": "Plant response rating, Pigweed", "setting": "pigweed; [6]", "result": 90},
      {"measurement": "Plant response rating, Pigweed", "setting": "pigweed; [7]", "result": 90},
      {"measurement": "Plant response rating (scale of 0 to 100), Pigweed", "setting": "pigweed; Preemergence, 250 g ai/ha", "result": 90},
      {"measurement": "Plant response rating, Wheat", "setting": "wheat (winter wheat); [1]", "result": 0},
      {"measurement": "Plant response rating, Wheat", "setting": "wheat (winter wheat); [2]", "result": 0},
      {"measurement": "Plant response rating, Wheat", "setting": "wheat (winter wheat); [3]", "result": 0},
      {"measurement": "Plant response rating, Wheat", "setting": "wheat (winter wheat); [4]", "result": 0},
      {"measurement": "Wheat plant response rating", "setting": "wheat (winter wheat); [5]", "result": 0},
      {"measurement": "Plant response rating, Wheat", "setting": "wheat (winter wheat); [6]", "result": 5},
      {"measurement": "Plant response rating, Wheat", "setting": "wheat (winter wheat); [7]", "result": 80},
      {"measurement": "Plant response rating (scale of 0 to 100), Wheat", "setting": "wheat (winter wheat); Preemergence, 250 g ai/ha", "result": 80},
      {"measurement": "Plant response rating, Rice", "setting": "rice; 31 g ai/ha, scale of 0 to 100 where 0 is no effect and 100 is complete control, 13 to 15 days", "result": 0},
      {"measurement": "Plant response rating, Rice", "setting": "rice; 62 g ai/ha, scale of 0 to 100 where 0 is no effect and 100 is complete control, 13 to 15 days", "result": 0},
      {"measurement": "Plant response rating, Rice", "setting": "rice; 125 g ai/ha, scale of 0 to 100 where 0 is no effect and 100 is complete control, 13 to 15 days", "result": 0},
      {"measurement": "Plant response rating, Rice", "setting": "rice; 250 g ai/ha, scale 0 to 100", "result": 0}
    ]}
  ]
}
